From BindingDB's records for doi:10.1016/j.bioorg.2016.11.011 (Tehran University of Medical Sciences, 2017)
“And” between values parts separate entries of the source, which are not always exact repeats. Equal entries are not always repeated.

Experiments:
[1] = molecular target: Carboxylic ester hydrolase (Equus caballus, UniProt Q9N1N9); test: AChE and BChE Inhibition Assay; conditions: pH 8; 25 °C
Procedure: (§1) In vitro anti-AChE activity was performed based on the modified Ellman's method [Ellman et al., Biochem. Pharmacol., […]]. […] Each well contained 50 μL potassium phosphate buffer (KH2PO4/K2HPO4, 0.1 M, pH 8), 25 μL prepared sample as described above, 25 μL enzyme with final concentration of 0.22 U/mL in buffer. They were preincubated for 15 min at room temperature, and then […] DTNB (3 mM in buffer) was added. […] The IC50 values were determined graphically from inhibition curves (log inhibitor concentration vs. percent of inhibition). A control experiment was performed under the same conditions without inhibitor and the blank contained buffer, water, DTNB, and substrate. The described method was also used for BChE inhibition assay.

Acetylcholinesterase = Acetylcholinesterase (Electrophorus electricus, UniProt O42275); test: AChE and BChE Inhibition Assay; conditions: pH 8; 25 °C
Chain of Acetylcholinesterase (O42275 whole entry): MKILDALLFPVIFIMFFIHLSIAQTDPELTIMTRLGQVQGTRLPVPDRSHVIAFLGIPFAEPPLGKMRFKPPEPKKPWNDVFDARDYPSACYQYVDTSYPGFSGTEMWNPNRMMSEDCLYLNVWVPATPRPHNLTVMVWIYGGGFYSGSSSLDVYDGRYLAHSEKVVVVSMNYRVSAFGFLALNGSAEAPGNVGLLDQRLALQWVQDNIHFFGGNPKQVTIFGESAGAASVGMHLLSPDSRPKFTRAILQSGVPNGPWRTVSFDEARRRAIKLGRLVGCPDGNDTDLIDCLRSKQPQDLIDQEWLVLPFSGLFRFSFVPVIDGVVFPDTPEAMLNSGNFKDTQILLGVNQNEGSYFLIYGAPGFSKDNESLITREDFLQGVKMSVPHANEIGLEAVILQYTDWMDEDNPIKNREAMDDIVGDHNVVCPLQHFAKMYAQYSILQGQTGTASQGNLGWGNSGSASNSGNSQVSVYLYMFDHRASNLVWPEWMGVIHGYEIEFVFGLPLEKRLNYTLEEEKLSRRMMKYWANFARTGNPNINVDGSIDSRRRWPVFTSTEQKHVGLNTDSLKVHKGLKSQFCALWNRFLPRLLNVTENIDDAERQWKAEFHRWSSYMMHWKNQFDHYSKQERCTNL
Procedure: as §1

Chain of Carboxylic ester hydrolase (Q9N1N9 whole entry): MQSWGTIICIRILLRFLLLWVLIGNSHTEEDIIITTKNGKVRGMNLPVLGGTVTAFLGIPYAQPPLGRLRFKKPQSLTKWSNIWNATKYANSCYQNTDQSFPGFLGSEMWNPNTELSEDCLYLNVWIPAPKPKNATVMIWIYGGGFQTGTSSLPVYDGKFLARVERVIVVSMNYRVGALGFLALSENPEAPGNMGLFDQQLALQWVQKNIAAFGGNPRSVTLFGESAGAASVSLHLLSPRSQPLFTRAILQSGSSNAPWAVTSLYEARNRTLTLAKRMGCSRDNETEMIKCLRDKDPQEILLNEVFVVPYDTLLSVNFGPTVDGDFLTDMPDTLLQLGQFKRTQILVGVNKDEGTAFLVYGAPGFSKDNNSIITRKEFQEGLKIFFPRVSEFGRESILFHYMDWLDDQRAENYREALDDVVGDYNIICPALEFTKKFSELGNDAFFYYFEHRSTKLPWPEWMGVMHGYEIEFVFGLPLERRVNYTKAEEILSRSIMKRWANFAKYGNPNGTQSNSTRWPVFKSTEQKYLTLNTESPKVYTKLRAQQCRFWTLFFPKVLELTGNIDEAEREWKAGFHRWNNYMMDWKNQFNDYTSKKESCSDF

Compound `COc1cccc2cc(C(=O)NCc3cn(Cc4ccccc4C)nn3)c(=O)oc12` [8-Methoxy-N-((1-(2-methylbenzyl)-1H-1,2,3-triazol-4-yl)methyl)-2-oxo-2H-chromene-3-carboxamide (6l)] has an IC50 [1] greater than 100 µM and an IC50 (Acetylcholinesterase) of 24.1 µM.

Work on `COc1cccc2cc(C(=O)NCc3cn(Cc4cccc(Cl)c4Cl)nn3)c(=O)oc12` [N-((1-(2,3-dichlorobenzyl)-1H-1,2,3-triazol-4-yl)methyl)-8-methoxy-2-oxo-2H-chromene-3-carboxamide (6n)] yielded an IC50 [1] greater than 100 µM and an IC50 (Acetylcholinesterase) of 33.8 µM.

`O=C(NCc1cnnn1Cc1cccc(Cl)c1Cl)c1cc2ccccc2oc1=O` [N-((1-(2,3-dichlorobenzyl)-1H-1,2,3-triazol-5-yl)methyl)-2-oxo-2H-chromene-3-carboxamide (6h)] showed an IC50 [1] of 67 µM and an IC50 (Acetylcholinesterase) of 20.2 µM.

With `O=C(NCc1cnnn1Cc1ccccc1Br)c1cc2ccccc2oc1=O` [N-((1-(2-bromobenzyl)-1H-1,2,3-triazol-5-yl)methyl)-2-oxo-2H-chromene-3-carboxamide (6j)] the IC50 [1] was 31 µM and > 100 µM.

Compound `COc1cccc2cc(C(=O)NCc3cn(Cc4ccccc4Cl)nn3)c(=O)oc12` [N-((1-(2-chlorobenzyl)-1H-1,2,3-triazol-4-yl)methyl)-8-methoxy-2-oxo-2H-chromene-3-carboxamide (6m)] has an IC50 [1] of 96.1 µM and an IC50 (Acetylcholinesterase) of 15.4 µM.

For `O=C(NCc1cnnn1Cc1ccccc1Cl)c1cc2ccccc2oc1=O` [N-((1-(2-chlorobenzyl)-1H-1,2,3-triazol-5-yl)methyl)-2-oxo-2H-chromene-3-carboxamide (6f)], the IC50 [1] was greater than 100 µM and the IC50 (Acetylcholinesterase) was 34 µM.

Work on `Cc1ccccc1Cn1nncc1CNC(=O)c1cc2ccccc2oc1=O` [N-((1-(2-methylbenzyl)-1H-1,2,3-triazol-5-yl)methyl)-2-oxo-2H-chromene-3-carboxamide (6b)] yielded an IC50 [1] greater than 100 µM and an IC50 (Acetylcholinesterase) of 78.9 µM.

In the case of `COc1cccc2cc(C(=O)NCc3cn(Cc4ccc(Cl)c(Cl)c4)nn3)c(=O)oc12` [N-((1-(3,4-dichlorobenzyl)-1H-1,2,3-triazol-4-yl)methyl)-8-methoxy-2-oxo-2H-chromene-3-carboxamide (6o)], the IC50 [1] is reported as greater than 100 µM and the IC50 (Acetylcholinesterase) is reported as 25.5 µM.

`O=C(NCc1cnnn1Cc1ccc(Cl)c(Cl)c1)c1cc2ccccc2oc1=O` [N-((1-(3,4-dichlorobenzyl)-1H-1,2,3-triazol-5-yl)methyl)-2-oxo-2H-chromene-3-carboxamide (6i)] gave an IC50 [1] greater than 100 µM and an IC50 (Acetylcholinesterase) of 16.7 µM.

Work on `O=C(NCc1cnnn1Cc1cccc(Cl)c1)c1cc2ccccc2oc1=O` [N-((1-(3-chlorobenzyl)-1H-1,2,3-triazol-5-yl)methyl)-2-oxo-2H-chromene-3-carboxamide (6g)] yielded an IC50 [1] greater than 0.1 µM and an IC50 (Acetylcholinesterase) of 92.8 µM.

`O=C(NCc1cnnn1Cc1cccc(F)c1)c1cc2ccccc2oc1=O` [N-((1-(3-fluorobenzyl)-1H-1,2,3-triazol-5-yl)methyl)-2-oxo-2H-chromene-3-carboxamide (6d)] gave an IC50 [1] greater than 100 µM and an IC50 (Acetylcholinesterase) of 48.1 µM.

For `O=C(NCc1cn(Cc2ccc(Br)cc2)nn1)c1cc2ccccc2oc1=O` [N-((1-(4-bromobenzyl)-1H-1,2,3-triazol-4-yl)methyl)-2-oxo-2H-chromene-3-carboxamide (6k)], the IC50 [1] was > 100 µM and 75.3 µM.

For `O=C(NCc1cnnn1Cc1ccc(F)cc1)c1cc2ccccc2oc1=O` [N-((1-(4-fluorobenzyl)-1H-1,2,3-triazol-5-yl)methyl)-2-oxo-2H-chromene-3-carboxamide (6e)], the IC50 [1] was greater than 100 µM and the IC50 (Acetylcholinesterase) was greater than 100 µM.

Work on `Cc1ccc(Cn2nncc2CNC(=O)c2cc3ccccc3oc2=O)cc1` [N-((1-(4-methylbenzyl)-1H-1,2,3-triazol-5-yl)methyl)-2-oxo-2H-chromene-3-carboxamide (6c)] yielded an IC50 [1] greater than 100 µM and an IC50 (Acetylcholinesterase) greater than 100 µM.

Compound `O=C(NCc1cnnn1Cc1ccccc1)c1cc2ccccc2oc1=O` [N-((1-benzyl-1H-1,2,3-triazol-5-yl)methyl)-2-oxo-2Hchromene-3-carboxamide (6a)] has an IC50 [1] greater than 100 µM and an IC50 (Acetylcholinesterase) greater than 100 µM.
